In PMC6530361, “Anti-tumor Efficacy Assessment of the Sigma Receptor Pan Modulator RC-106. A Promising Therapeutic Tool for Pancreatic Cancer” (Frontiers in Pharmacology, 2019):

Legend:
Panc-1 spheroids [1] = test: CellTiter-Glo 3D cell viability assay; type: cell-based; details: Homo sapiens, PANC-1, 48 h, 3D spheroids, diameter up to 600 μm, 12.5–50 μM
Procedure: (§1) Spheroids were obtained as previously described ([Zanoni et al., 2016]). Briefly, a rotatory cell culture system RCCS (Synthecon Inc., Houston, TX, United States) was used. The rotary systems were placed inside a humidified 37°C, 5% CO2 incubator and all procedures were performed in sterile conditions. Single cell suspensions of about 1 × 10^6 cells/ml of Panc-1 were placed in the 50 mL rotating chamber at an initial speed of 12 rpm. Speed was increased as cells formed aggregates to avoid sedimentation. The culture medium was changed every 4 days and tumor spheroids with an equivalent diameter ranging from about 500–1300 μm were obtained in around 15 days. After formation, spheroids were transferred into a 96-well low-attachment culture plates (Corning Inc., Corning, NY, United States; one spheroid/well), containing 100 μL of fresh culture medium per well.
Cell viability of Panc-1 spheroids was measured using a 3D cell viability assay (Promega, Milan, Italy). Briefly, homogeneous spheroids were removed from the 96-well low-attachment culture plate and placed separately in single wells of a 96-well opaque culture plate (BD Falcon). CellTiter-Glo® 3D reagent was added to each well and the luminescence signal was read after 30 min with the GloMax® bioluminescent reader (Promega).
The analysis of morphological parameters were performed as previously described ([Piccinini et al., 2017]). […]

S2R = system: S2R; set-up: method as in Rui et al., 2016; Rossi et al., 2017; details: ref Rui et al., 2016; Rossi et al., 2017; cited from earlier work
Panc-1 spheroids [2] = test: Analysis of morphological parameters of 3D tumor spheroids; type: cell-based; details: 50 μM, 48 h
Procedure: as §1
The analysis of morphological parameters were performed as previously described ([Piccinini et al., 2017]). Briefly, an inverted Olympus IX51 microscope (Olympus Corporation, Tokyo, Japan), equipped with a Nikon Digital Sight DS-Vi1 camera (CCD vision sensor, square pixels of 4.4 μm side length, 1600 × 1200 pixel resolution, 8-bit gray level; Nikon Instruments, Spa. Florence, Italy) was used to take images and for morphological analyses. […]

[3] = In vivo pharmacokinetic study, plasma; set-up: species or system male CD-1 mice; details: mice
Procedure: The experiments were performed in agreement with the Italian Law D. L.vo 4 marzo 2014, n. 26. The treatments involved male CD-1 mice and a unique number on the tail identified each animal. Mice were housed, in groups of four, in cages suitable for the species. After 5 days of adaptation to the local housing conditions, animals were housed in a single, exclusive, air-conditioned room to provide a minimum of 15 air changes/hour. The environmental controls were set to maintain the temperature at around 22°C and the relative humidity within the range 50 to 60%, along with an approximate 12:12 h light/dark cycle automatically controlled. Food (Mucedola Standard GLP diet) and water were available ad libitum throughout the entire duration of the study. All animals were weighted on the day of the treatment.
Mice (n = 4/time point) received an intraperitoneal administration (i.p., 10 mL/kg) of RC-106 at 10 mg/kg. CD-1 male mice were exsanguinated under anesthesia (isoflurane) from the aorta at the following time points: 5, 10, 30, 120, 240, and 480 min. Blood samples were collected in tubes containing heparin, gently mixed and immediately placed on ice. Afterward, they have been centrifuged (3500 × g, at 4°C for 15 min), the obtained plasma has been collected and transferred to individually labeled tubes and frozen at -20°C until the analysis. Plasma samples were used for quantification of RC-106. Pancreas was taken by surgical resection after 20 min from the last treatment, washed in saline, dried on paper, weighted and frozen at -20°C. The organ was homogenized using a Velp OV5 homogenizer with 20 mM ammonium formiate buffer in a ratio of 1 g of tissue per 10 mL of buffer.
20 mg/mL stock solution (s.s.) of RC-106 was prepared by dissolving the compound in DMSO. 1 mL of 5% Tween80 in H2O was slowly added to 500 μL of s.s. under stirring. Then 8.5 mL of water was gently spiked to obtain the 1 mg/mL formulation of RC-106.
Standard curves of RC-106 were prepared for plasma and pancreas homogenate, and analyzed together with each QC and unknown sample set. For the PK and pancreas distribution sample analysis, plasma and pancreas homogenate samples (50 μL) were spiked in 200 μL of IS in MeOH (0.1 μg/mL of RC-33), followed by 2 min vortex mixing. Samples were centrifuged and transferred in UFLC vials. 5 μL aliquots of the collected samples were injected into the LC-MS/MS system. Standard calibration graphs were constructed by linear least-squares regression analysis on the analyte/IS area ratio plotted against sample concentration. Calibration ranges were from 5 to 1000 ng/mL for plasma, and from 5 to 500 ng/mL for pancreas homogenate. Accuracy values were determined in triplicates at three different concentrations (high, medium, and low) in the range of linearity of the calibration curves.
Analyses were acquired on a Shimadzu AC20 UFLC system interfaced with an API 3200 Triple Quadrupole detector (AB Sciex). Data acquisition and control were performed using the Analyst^TM 6.1 (Applied Biosystems) Software. A Phenomenex Gemini-NX C18 (50 mm × 2 mm, 5 μm) column was selected to carry out the analytical evaluations. A gradient method was set up (Supplementary Table S1) and it provided the employment of water and methanol, both containing 0.1% of formic acid, at a flow rate of 0.3 mL/min. The LC eluate was directly introduced into the MS interface using the ESI in the positive ion mode. The MRM transitions m/z 181.2 were tracked (Supplementary Table S2).

[4] = male, CD-1, mouse, plasma, ip, 10 mg/kg

Compound: C/C(=C\CN1CCC(Cc2ccccc2)CC1)c1ccc2ccccc2c1 [RC-106, (E)-4-benzyl-1-(3-(naphthalen-2-yl)but-2-en-1-yl)piperidine]
- IC50 (Panc-1 spheroids [1]): 39.6 µM
- S2R modulatory profile (S2R): S2R agonist
- 3D morphological parameters of spheroids (Panc-1 spheroids [2]): complete disaggregation of spheroid organization and cytoarchitecture
- Cmax [3, 4]: 973 ng/mL
- AUC(0-t) ([3]; male, CD-1, mouse, plasma, ip, 10 mg/kg, i.p., 10 mg/kg, read-out: AUC0-t, plasma (converted)): 1130 ng·h/mL
- concentration at 5 min ([3]; male, CD-1, mouse, plasma, ip, 5 min after i.p. 10 mg/kg, read-out: plasma C): 973 ng/mL
- concentration at 10 min ([3]; male, CD-1, mouse, plasma, ip, 10 min after i.p. 10 mg/kg, read-out: plasma C): 884 ng/mL
- concentration at 30 min ([3]; male, CD-1, mouse, plasma, ip, 30 min after i.p. 10 mg/kg, read-out: plasma C): 361 ng/mL
- concentration at 120 min ([3]; male, CD-1, mouse, plasma, ip, 120 min after i.p. 10 mg/kg, read-out: plasma C): 134 ng/mL
- concentration at 240 min ([3]; male, CD-1, mouse, plasma, ip, 240 min after i.p. 10 mg/kg, read-out: plasma C): 76 ng/mL
- concentration at 480 min ([3]; male, CD-1, mouse, plasma, ip, 480 min after i.p. 10 mg/kg, read-out: plasma C): 38 ng/mL
- Tmax [3, 4]: 5 min
- half-life ([3]; male, CD-1, mouse, plasma, ip, i.p., 10 mg/kg, read-out: t1/2, plasma): 3.37 h
- AUC0-t, plasma ([3]; i.p., 10 mg/kg): 67987 ng·min/mL
- Cmax, plasma ([3]; i.p., 10 mg/kg): 973 ± 167 ng/mL
